Measurements reported in patent US8906960B2, “Synergistic effect of tocotrienols and curcumin” (Malaysian Palm Oil Board, priority 2010, dated 2014).

Columns and labels:
[1] = system: MCF-7 human breast cancer cells; test: Cell growth experiment: inhibition of proliferation of MCF-7 cells (viable cell count after 72 hours); type: cell-based
Procedure: Stock solution of TRF and curcumin was prepared in dimethyl sulfoxide (DMSO) at a concentration of 10 mg/mL. For cell growth experiments (as described below), treatments of TRF and curcumin were diluted in phenol red-free RPMI 1640 medium supplemented with 5% dextran-charcoal-treated […]) to final concentrations of 1-100 μM in test medium. MCF-7 cells were suspended from T75 flask by treatment of trypsin to an equal volume of phenol red free RPMI 1640 medium supplemented with 5% dextran-charcoal treated […]), 1% penicillin-streptomycin, 1% L-glutamine and counted on a haemocytometer. Cells were added to the required volume of phenol red free RPMI medium supplemented with 5% dextran-charcoal treated […]), 1% penicillin-streptomycin, 1% L-glutamine. […] MCF-7 cells were seeded in each well of 24-well tissue culture dishes. […] Cell proliferation was measured by using an automated particle counter, Beckman Coulter Particle Counter. […] The nuclei released were counted in isoton on a Coulter particle counter. […] The IC50 value was calculated as an average of three generated value of each replicates. Comparisons between means of six groups were assessed for significance. […]

[2] = system: B16F-10 melanoma lung metastasis; settings: cited from earlier work
[3] = system: PC-3, a prostate cancer cell; settings: PC-3 prostate cancer cell; cited from earlier work
[4] = system: vascular cell adhesion molecule-1 (VCAM-1) expression; THP-1 adhesion to HUVECs; settings: suppression of VCAM-1 expression and THP-1 adhesion to HUVECs; cited from earlier work

In the case of `COc1cc(/C=C/C(=O)CC(=O)/C=C/c2ccc(O)c(OC)c2)ccc1O` [Curcumin], the IC50 ([1]; Homo sapiens, MCF7, MCF-7 cells, 72 hours, 10^-8 M estradiol, test compounds 1-100 μM, combinations with 1 μM of the second ingredient) is listed as 25.3 µM, the “Effect of curcumin on the anti-proliferative effect of tocotrienols” value ([1]; estrogen-positive MCF-7 human breast cancer cells in vitro) is listed as “synergistically enhanced the anti-proliferative effect of tocotrienols” and the “Increase of life span of the animals” value ([2]; mice treated with curcumin) is listed as 143.85%. For the same compound, the “Reduction of the number of lung tumor nodules” value ([2]; oral administration, 200 nmol/kg body weight, mice) was 80%.
For `Cc1c(C)c2c(c(C)c1O)CC[C@@](C)(CCC[C@H](C)CCC[C@H](C)CCCC(C)C)O2` [α-tocopherol], the “Effect on proliferation of PC-3” value [3] is listed as “no significant effects”.
For `CC(C)=CCC/C(C)=C/CC/C(C)=C/CC[C@]1(C)CCc2c(C)c(O)c(C)c(C)c2O1` [α-tocotrienol], the “Efficacy relative to α-tocopherol” value [4] is given as 10 fold.
In the case of `CC(C)=CCC/C(C)=C/CC/C(C)=C/CC[C@]1(C)CCc2cc(O)c(C)c(C)c2O1` [γ-tocotrienol], the “Effect on proliferation of PC-3” value [3] is given as “inhibit the proliferation”.
In the case of `CC(C)=CCC/C(C)=C/CC/C(C)=C/CC[C@]1(C)CCc2cc(O)cc(C)c2O1` [δ-tocotrienol], the “Effect on proliferation of PC-3” value [3] is listed as “inhibit the proliferation”.
